This assay addresses T1, 6-phosphofructo-1 kinase (PFK1) (Mus musculus, UniProt P47857).
T1 construct: made in house; host or cells: E. coli
As to the kind of experiment: PFK1 enzyme assay. It is filed as biochemical. The procedure: Figure 1 The AMP Analog C2 Is a Potent AMPK Activator in Cell-Free Assays with Selectivity for α1 Complexes (A) The structure of the endogenous activator of AMPK, AMP; the AMP mimetic, C2; and the classical AMP mimetic, ZMP, and other AMPK activators are shown. […] (B) Recombinant AMPK complexes (α1β1γ1, α2β1γ1, α1β1γ2, and α1β2γ1) expressed in Spodoptera frugiperda were assayed for allosteric activation by AMP or C2. Results are expressed as the increase in activity relative to controls without ligand and represent the mean ± SD for three independent experiments. (C) Enzymes allosterically regulated by AMP (PFK1 and FBP1) or using AMP as a substrate (AMPD1, AK, and 5′-NT) were assayed in the presence of C2 (≤ 100 μM). Enzymes allosterically regulated by AMP were screened for both agonism and antagonism, the latter in the presence of AMP at ≈ EC50. All enzymes were unaffected by [C2] ≤ 100 μM. Representative data are shown for the effects of AMP and C2 on PFK1 and FBP1 activity. Results are representative of three independent experiments conducted on one enzyme preparation. […]

This is an account of results in paper PMC4104029, “Mechanism of Action of Compound-13: An α1-Selective Small Molecule Activator of AMPK” (Chemistry & Biology, 2014).

The term EC50 denotes the midpoint of the concentration-response curve.

T1 sequence (P47857 whole entry): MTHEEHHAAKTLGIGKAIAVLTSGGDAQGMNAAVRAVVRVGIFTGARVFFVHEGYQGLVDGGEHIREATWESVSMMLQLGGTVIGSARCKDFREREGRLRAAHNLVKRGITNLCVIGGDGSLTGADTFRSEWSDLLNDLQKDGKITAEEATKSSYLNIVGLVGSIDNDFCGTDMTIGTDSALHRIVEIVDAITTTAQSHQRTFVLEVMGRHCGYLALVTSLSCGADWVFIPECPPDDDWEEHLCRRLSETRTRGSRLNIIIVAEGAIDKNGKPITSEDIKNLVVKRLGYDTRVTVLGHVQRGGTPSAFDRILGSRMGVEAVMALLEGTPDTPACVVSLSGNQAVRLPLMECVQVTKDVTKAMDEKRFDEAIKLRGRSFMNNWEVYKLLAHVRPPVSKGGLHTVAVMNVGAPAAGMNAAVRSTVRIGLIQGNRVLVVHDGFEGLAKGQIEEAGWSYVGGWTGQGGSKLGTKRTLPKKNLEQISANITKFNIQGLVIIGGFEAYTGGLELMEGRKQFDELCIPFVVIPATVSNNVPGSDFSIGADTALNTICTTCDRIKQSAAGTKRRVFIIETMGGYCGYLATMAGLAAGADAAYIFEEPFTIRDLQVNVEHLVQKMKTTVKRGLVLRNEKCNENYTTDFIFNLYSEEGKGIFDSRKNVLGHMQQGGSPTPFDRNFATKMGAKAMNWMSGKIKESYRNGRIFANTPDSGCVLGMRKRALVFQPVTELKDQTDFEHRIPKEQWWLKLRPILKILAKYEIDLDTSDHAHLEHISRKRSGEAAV

For the molecule `Nc1ncnc2c1ncn2[C@@H]1O[C@H](COP(=O)(O)O)[C@@H](O)[C@H]1O` [AMP, reference compound], the EC50 (read-out: EC50, activation of PFK1) is 33 µM. As for `O=P(O)(O)c1ccc(-c2cc(O)on2)o1` [Compound C2, 5-(5-hydroxyl-isoxazol-3-yl)-furan-2-phosphonic acid], the “effect on PFK1” value (concentrations up to 100 μM) was “no effect”.
